# Measured values taken from US11827690B2, “ApoC-II mimetic peptides” (THE UNITED STATES OF AMERICA, as represented by the …, priority 2017, dated 2023).
# Key:
# [1] = tested on: chylomicrons isolated from human plasma; experiment: ApoC-III displacement study in chylomicrons isolated from human plasma; type: binding
# Procedure: VLDL or chylomicrons isolated from human plasma were incubated with an apoC-II mimetic peptide for 1 hour at 37° C. and washed 3 times with PBS using spin filter with 100 kDa cutoff membrane. Supernatants were brought to the original volume with PBS and loaded to 4-12% Bis-TRIS SDS PAGE gel. ApoC-I, apoC-II, apoC-III, and apoE bands were identified by their corresponding size.
# [2] = tested on: C57BL/6 mice (wild-type); experiment: post-prandial serum TG in C57BL/6 mice after oral gavage with vegetable oil; type: in vivo; details: 1 μmoL/kg IP or SQ 30 min before gavage with vegetable oil (10 μL/gram)
# Procedure: (§1) C57Bl/6 mice (wild-type), apoC-II knockout (apoC-II KO) mice, and apoC-III transgenic mice were used for in vivo study. The C57Bl/6 mice (wild-type) were purchased from Taconic Biosciences Inc. The apoC-II KO mice were created as described in Sakurai et al., J Pharmacol Exp Ther 356:341-353, 2016. The apoC-III transgenic mice were generated by overexpressing human apoC-III in C57Bl/6 mice. See Qu et al., J. Lipid Res. 48:1476-1487, 2007.
# (§2) Mice were fasted overnight (approximately 12 hours) before the study and 6 hours during the study, the next day. The apoC-II mimetic peptides were synthetically produced and free of biological contamination (not available as FDA approved compounds/treatment). Peptides were produced and used in sterile conditions and filtered by 0.2 nm filter before injections in a single dose 1-10 μmol/kg body weight (B. W.) administered either subcutaneous injection (S.Q. or S.C.), intraperitoneal injection (I.P.) or intravenous injection (I.V.) (in a sterile, pharmaceutical grade PBS solution at a volume ≤200 μL) as described in Sakurai et al., J Pharmacol Exp Ther 356:341-353, 2016.
# In some experiments, each animal received 20% Intralipid (FDA approved, Fresenius Kabi, Uppsala, Sweden) in a single dose either by oral gavage (using special sterile single-use non-toxic animal feeding needles) in a dose 10-20 μL/gram body weight (B.W.) (Tuzcu et al. Drug Chem Toxicol 37: 261-267, 2014; Kusminski et al. Nature Medicine 18: 1539-1549, 2012), or by intraperitoneal injection in a single bolus of 0.1-1.0 mL (Mahadero et al. American J Surgery 164: 45-50, 1992), or by intragastric administration of a dietetic commercially-available liquid oil (food grade vegetable, corn, soy or olive oil) in a single dose 10-20 μL/gram body weight. These oils were a source of TG—when absorbed TG tends to be broken down within 3 h (peak in 30 min) (Kritchevsky Nutritional Biochemistry 6:172-178, 1995). Blood samples (20-30 μL) were obtained from the retro-orbital plexus at time points: −1 h, 0 h, 1 h, 3 h, 6 h and 24 h for measurements of lipids. Mice were returned to metabolic cages after the 6 h time point where the food was put back. Once the study was completed (after 24 hours from the fat administration), mice were euthanized and organs collected.
# [3] = tested on: apoC-II knockout mice; experiment: plasma lipids of apoC-II knockout mice after peptide injection; type: in vivo
# [4] = tested on: apoC-II knockout mice; experiment: serum TG of apoC-II knockout mice after Intralipid injection; type: in vivo; details: peptide IP 1 hour after Intralipid, 5 and 10 μmole/kg, FIG. 37B
# Procedure: as §1
# as §2, with “2016. […]” for “2016.”
# [5] = tested on: apoC-III transgenic mice; experiment: plasma TG and apoC-III of apoC-III transgenic mice after peptide injection; type: in vivo
# Procedure: as §1, §2
# [6] = SEC-FPLC, 1 μmole/kg, 6 hours after injection, FIG. 41
# [7] = ELISA, 5 μmole/kg, Day 1 and Day 5, 3 h after injection
sequence,measurement,setting,value
"DWLKAFYDKVAEKLKEAFPAMSTYTGIFTDQVLSVLKGEE (listed as Homo sapiens) [apoC-II-a, excluded from the claimed peptides]",affinity for chylomicrons compared with the apolipoproteins,[1],higher affinity for chylomicrons than the apolipoproteins
same,post-prandial TG rise,[2],almost completely blunted
DYLKEVFEKLRDLYEKFTPAVSTYTGIFTDQVLSVLKGEE [Delta6PV],time of maximum reduction of plasma TG,"[3]; 0.1 μmol/kg intraperitoneally, after the peptide injection",about 6 hours
same,plasma TG,"[3]; 0.1 μmol/kg of body weight intraperitoneally, FIG. 53",rapid reduction of plasma TG
same,level of HDL as measured by the phospholipid level,[3]; [6],increased
same,level of VLDL as measured by the phospholipid level,[3]; [6],decreased
same,level of TG in the VLDL pool,"[3]; SEC-FPLC, 1 μmole/kg, FIG. 42",decreased
same,plasma TG,[3]; intraperitoneal injection,rapid and marked reduction of plasma TG
same,plasma TG,"[3]; repeat IP injection at 24 h intervals for 6 days, 0.25 and 1 μmole/kg, FIG. 40",marked and lasting reduction of plasma TG
same,plasma TG,[3]; subcutaneous injection,rapid and marked reduction of plasma TG
same,serum TG increase after Intralipid injection,[4],the TG increase was significantly reduced
same,apoC-III level on HDL,[5]; [7],decreased
same,apoC-III level on VLDL,[5]; [7],decreased
same,plasma TG compared to control,"[5]; repeat IP injection at 24 h intervals for 5 days, 5 μmole/kg, 1 h, 3 h, 6 h after injection on Day 1 and Day 5",lower plasma TG
same,plasma TG,"[5]; single intraperitoneal injection, 1, 5 and 10 μmole/kg, FIG. 38B",rapid and marked reduction of plasma TG
same,time of maximum decrease of plasma TG,"[5]; single intraperitoneal injection, after the injection",about 6 hours
